Measurements: PubChem BioAssay AID330 (DTP/NCI, 2004)
Values joined by “and” are separate entries in the source; they are usually repeats but may differ in a detail not shown here. Identical values can stand only once. Inconclusive results and toxic doses are left out. How the source made its calls: active means survival T/C of 150% or more; inactive means T/C below 125% in these data.

Tested on: P388 leukemia ip, CD2F1 mice, survival T/C
Experiment: NCI In Vivo Anticancer Drug Screen. Data for tumor model P388 Leukemia (intraperitoneal) in CD2F1 (CDF1) mice
Details: endpoint: median survival time, higher = longer survival
Procedure, shortened: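 Mice carrying the transplanted tumor received test compound or vehicle. Survival was recorded in each group, and the value is the treated-group measurement divided by that of the vehicle-treated control group.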

[1] = dose: 12.5 mg/kg/injection, schedule: Q04DX002 (ip), vehicle: saline with Tween-80
[2] = dose: 25.0 mg/kg/injection, schedule: Q04DX002 (ip), vehicle: saline with Tween-80
[3] = dose: 50.0 mg/kg/injection, schedule: Q04DX002 (ip), vehicle: saline with Tween-80
[4] = dose: 50.0 mg/kg/injection, schedule: Q01DX009 (ip), vehicle: Klucel (hydroxypropylcellulose) (HPC)
[5] = dose: 100.0 mg/kg/injection, schedule: Q01DX009 (ip), vehicle: Klucel (hydroxypropylcellulose) (HPC)
[6] = dose: 200.0 mg/kg/injection, schedule: Q01DX009 (ip), vehicle: Klucel (hydroxypropylcellulose) (HPC)
[7] = dose: 100.0 mg/kg/injection, schedule: Q01DX001 (ip), vehicle: Klucel (hydroxypropylcellulose) (HPC)
[8] = dose: 200.0 mg/kg/injection, schedule: Q01DX001 (ip), vehicle: Klucel (hydroxypropylcellulose) (HPC)
[9] = dose: 50.0 mg/kg/injection, schedule: Q01DX009 (ip), vehicle: saline
[10] = dose: 100.0 mg/kg/injection, schedule: Q01DX009 (ip), vehicle: saline
[11] = dose: 50.0 mg/kg/injection, schedule: Q01DX009 (ip), vehicle: saline with Tween-80
[12] = dose: 100.0 mg/kg/injection, schedule: Q01DX009 (ip), vehicle: saline with Tween-80
[13] = dose: 50.0 mg/kg/injection, schedule: Q01DX005 (ip), vehicle: saline with Tween-80
[14] = dose: 100.0 mg/kg/injection, schedule: Q01DX005 (ip), vehicle: saline with Tween-80
[15] = dose: 200.0 mg/kg/injection, schedule: Q01DX005 (ip), vehicle: saline with Tween-80
[16] = dose: 200.0 mg/kg/injection, schedule: Q01DX009 (ip), vehicle: saline

Measured: T/C

C1COCCOCCOCCOCCO1.[Cl][Sn]([Cl])([Cl])[Cl]
inactive: dose: 60.0 mg/kg/injection, schedule: Q01DX005 (ip), vehicle: Klucel (hydroxypropylcellulose) (HPC) 100 % of control | dose: 120.0 mg/kg/injection, schedule: Q01DX005 (ip), vehicle: Klucel (hydroxypropylcellulose) (HPC) 99 % of control

O=C1CC(c2ccccc2)NCCCCN2C(=O)C=Cc3ccccc3C2CCN1 (configuration not stated)
inactive: dose: 6.25 mg/kg/injection, schedule: Q01DX009 (ip), vehicle: Klucel (hydroxypropylcellulose) (HPC) 100 % of control | dose: 12.5 mg/kg/injection, schedule: Q01DX009 (ip), vehicle: Klucel (hydroxypropylcellulose) (HPC) 94 % of control

CN=C(N)N/N=C(\C)c1ccc2c(ccc3ccccc32)c1
inactive: dose: 6.25 mg/kg/injection, schedule: Q04DX002 (ip), vehicle: saline with Tween-80 105 % of control and 108 % of control | [1] 104 % of control and 107 % of control | [2] 122 % of control | [3] 123 % of control | dose: 100.0 mg/kg/injection, schedule: Q04DX002 (ip), vehicle: saline with Tween-80 123 % of control | dose: 200.0 mg/kg/injection, schedule: Q04DX002 (ip), vehicle: saline with Tween-80 107 % of control

c1ccc([P+](c2ccccc2)(c2ccccc2)c2ccccc2)cc1
inactive: dose: 0.63 mg/kg/injection, schedule: Q04DX003 (ip), vehicle: saline 100 % of control | dose: 1.25 mg/kg/injection, schedule: Q04DX003 (ip), vehicle: saline 118 % of control | dose: 2.5 mg/kg/injection, schedule: Q04DX003 (ip), vehicle: saline 122 % of control | dose: 3.3 mg/kg/injection, schedule: Q04DX003 (ip), vehicle: saline 122 % of control

O=C(CSc1ccccc1)c1ccccc1
inactive: dose: 10.0 mg/kg/injection, schedule: Q01DX005 (ip), vehicle: Klucel (hydroxypropylcellulose) (HPC) 101 % of control | dose: 20.0 mg/kg/injection, schedule: Q01DX005 (ip), vehicle: Klucel (hydroxypropylcellulose) (HPC) 102 % of control | dose: 40.0 mg/kg/injection, schedule: Q01DX005 (ip), vehicle: Klucel (hydroxypropylcellulose) (HPC) 101 % of control

CC(C)c1nc2c(c(=O)o1)CCS2
inactive: dose: 50.0 mg/kg/injection, schedule: Q01DX005 (ip), vehicle: Klucel (hydroxypropylcellulose) (HPC) 100 % of control | dose: 100.0 mg/kg/injection, schedule: Q01DX005 (ip), vehicle: Klucel (hydroxypropylcellulose) (HPC) 98 % of control | dose: 200.0 mg/kg/injection, schedule: Q01DX005 (ip), vehicle: Klucel (hydroxypropylcellulose) (HPC) 98 % of control

CCCCCCC(=O)C(=O)c1ccc(O)cc1O
inactive: [4] 113 % of control | [5] 109 % of control | [6] 109 % of control

CCCCOP(O)(=S)OCCCC.[Fe]
inactive: dose: 50.0 mg/kg/injection, schedule: Q01DX001 (ip), vehicle: Klucel (hydroxypropylcellulose) (HPC) 102 % of control | [7] 102 % of control | [8] 101 % of control

O=c1ccc2nccc3c4cc(O)ccc4n1c23
inactive: dose: 1.75 mg/kg/injection, schedule: Q01DX009 (ip), vehicle: saline with Tween-80 98 % of control | dose: 7.0 mg/kg/injection, schedule: Q01DX009 (ip), vehicle: saline with Tween-80 109 % of control

CN(C)P(=O)(N(C)C)N1CCC1
inactive: [9] 104 % of control | [10] 112 % of control

CCOC(=O)/C(=C\c1ccccc1)O/C(=C/c1ccccc1)C(=O)OCC
inactive: [1] 100 % of control | [2] 97 % of control | [3] 99 % of control

CCOC(=S)NC(=O)c1ccccc1
inactive: [11] 99 % of control | [12] 108 % of control | dose: 200.0 mg/kg/injection, schedule: Q01DX009 (ip), vehicle: saline with Tween-80 100 % of control

Clc1ccc2c3c([nH]c2c1)CCc1cncnc1-3
inactive: [7] 93 % of control | [8] 90 % of control | dose: 400.0 mg/kg/injection, schedule: Q01DX001 (ip), vehicle: Klucel (hydroxypropylcellulose) (HPC) 90 % of control

Cc1nc2[nH]cc(C)c2c(=O)[nH]1
inactive: dose: 60.0 mg/kg/injection, schedule: Q01DX005 (ip), vehicle: saline with Tween-80 103 % of control | dose: 120.0 mg/kg/injection, schedule: Q01DX005 (ip), vehicle: saline with Tween-80 97 % of control | dose: 240.0 mg/kg/injection, schedule: Q01DX005 (ip), vehicle: saline with Tween-80 105 % of control

NC(=S)c1ccccc1N=Cc1cccs1
inactive: dose: 100.0 mg/kg/injection, schedule: Q01DX001 (ip), vehicle: saline 100 % of control | dose: 200.0 mg/kg/injection, schedule: Q01DX001 (ip), vehicle: saline 102 % of control | dose: 400.0 mg/kg/injection, schedule: Q01DX001 (ip), vehicle: saline 98 % of control

CC(C)(C)OC(=O)NC(Cc1ccc(OCc2c(Cl)cccc2Cl)cc1)C(=O)O (configuration not stated)
inactive: [13] 104 % of control | [14] 100 % of control | [15] 100 % of control

N#C/C(C(N)=O)=C(\C(=O)c1ccccc1)c1ccccc1
inactive: [13] 99 % of control | [14] 96 % of control

OC1(CC2CO2)CCCc2ccccc21 (configuration not stated)
inactive: [4] 93 % of control | [5] 91 % of control | [6] 93 % of control

O=C1N(Cc2ccccc2)[C@H]2CS(=O)(=O)C[C@@H]2N1Cc1ccccc1
inactive: [13] 87 % of control | [14] 92 % of control | [15] 86 % of control

COc1cc(OC)c(C2CC(C)(OC)Oc3cc4c(cc32)OCO4)c(OC)c1 (configuration not stated)
inactive: [13] 103 % of control | [14] 97 % of control | [15] 90 % of control

CN(CC(=O)N1CCOCC1)Cc1c(Cl)cccc1NC(=O)c1ccccc1
inactive: [9] 100 % of control | [10] 103 % of control | [16] 105 % of control

COC(=O)c1ccc(C)cc1C(=O)OC
inactive: dose: 50.0 mg/kg/injection, schedule: Q04DX003 (ip), vehicle: saline with Tween-80 100 % of control | dose: 100.0 mg/kg/injection, schedule: Q04DX003 (ip), vehicle: saline with Tween-80 100 % of control | dose: 200.0 mg/kg/injection, schedule: Q04DX003 (ip), vehicle: saline with Tween-80 104 % of control

COC(=O)[C@H]1[C@H]2C[C@@H]3c4[nH]c5cc(OC)ccc5c4CCN3C[C@H]2C[C@@H](OC(=O)c2ccc(N)cc2)[C@@H]1OC
inactive: [13] 97 % of control | [14] 87 % of control | [15] 94 % of control

Nc1c[nH]c(=S)s1
inactive: dose: 25.0 mg/kg/injection, schedule: Q01DX009 (ip), vehicle: saline with Tween-80 116 % of control | [11] 114 % of control | [12] 94 % of control

N#Cc1cc(Br)ccc1[N+](=O)[O-]
inactive: dose: 6.25 mg/kg/injection, schedule: Q01DX009 (ip), vehicle: saline 103 % of control | dose: 12.5 mg/kg/injection, schedule: Q01DX009 (ip), vehicle: saline 101 % of control | [9] 94 % of control | [10] 90 % of control | [16] 99 % of control

CCOC(=O)CN1C(=S)N(c2ccc(C)cc2)C(=Nc2ccc(C)cc2)C1=Nc1ccc(C)cc1
inactive: dose: 50.0 mg/kg/injection, schedule: Q01DX005 (ip), vehicle: Klucel + Tween-80 96 % of control | dose: 100.0 mg/kg/injection, schedule: Q01DX005 (ip), vehicle: Klucel + Tween-80 91 % of control | dose: 200.0 mg/kg/injection, schedule: Q01DX005 (ip), vehicle: Klucel + Tween-80 90 % of control

CC(=O)/C(=C\c1ccc(/C=C(\C(C)=O)C(=O)CCN(C)C)cc1)C(=O)CCN(C)C
inactive: [13] 109 % of control and 118 % of control | [14] 120 % of control | [15] 105 % of control | dose: 400.0 mg/kg/injection, schedule: Q01DX005 (ip), vehicle: saline with Tween-80 120 % of control

CCOC(=O)C1=NCCS1
inactive: [13] 98 % of control | [14] 99 % of control | [15] 99 % of control

CN(C)CCOc1ccc2c(c1)C/C(=C/c1ncc([N+](=O)[O-])n1C)C2=O
inactive: dose: 11.0 mg/kg/injection, schedule: Q01DX009 (ip), vehicle: saline with Tween-80 124 % of control | dose: 15.0 mg/kg/injection, schedule: Q01DX009 (ip), vehicle: saline with Tween-80 109 % of control and 117 % of control | dose: 22.0 mg/kg/injection, schedule: Q01DX009 (ip), vehicle: saline with Tween-80 124 % of control | dose: 30.0 mg/kg/injection, schedule: Q01DX009 (ip), vehicle: saline with Tween-80 119 % of control | dose: 60.0 mg/kg/injection, schedule: Q01DX009 (ip), vehicle: saline with Tween-80 117 % of control | dose: 180.0 mg/kg/injection, schedule: Q01DX009 (ip), vehicle: saline with Tween-80 87 % of control
